In PubChem BioAssay AID1259407 (Chemical Carcinogenesis Research Information System (CCRIS), 2018):
The source made the active and inactive calls. No rule for the calls is given here.

Tested on: CCRIS mutagenicity, Ames/micronucleus/aberration tests
Experiment: CCRIS mutagenicity studies
Conditions: Test System: AMES SALMONELLA TYPHIMURIUM
[1] = Strain/Indicator: TA98, Metabolic Activation: NONE, Method: STANDARD PLATE
[2] = Strain/Indicator: TA100, Metabolic Activation: NONE, Method: STANDARD PLATE

Measured: mutagenic call

C=CC(=O)OCCCCCCOC(=O)C=C
inactive: Strain/Indicator: TA97, Metabolic Activation: HAMSTER, LIVER, S-9, AROCLOR 1254 (10%), Method: PREINCUBATION inactive; negative | Strain/Indicator: TA97, Metabolic Activation: HAMSTER, LIVER, S-9, AROCLOR 1254 (30%), Method: PREINCUBATION inactive; negative | Strain/Indicator: TA97, Metabolic Activation: NONE, Method: PREINCUBATION inactive; negative | Strain/Indicator: TA97, Metabolic Activation: RAT, LIVER, S-9, AROCLOR 1254 (10%), Method: PREINCUBATION inactive; negative | Strain/Indicator: TA97, Metabolic Activation: RAT, LIVER, S-9, AROCLOR 1254 (30%), Method: PREINCUBATION inactive; negative | Strain/Indicator: TA98, Metabolic Activation: HAMSTER, LIVER, S-9, AROCLOR 1254 (10%), Method: PREINCUBATION inactive; negative | Strain/Indicator: TA98, Metabolic Activation: HAMSTER, LIVER, S-9, AROCLOR 1254 (30%), Method: PREINCUBATION inactive; negative | Strain/Indicator: TA98, Metabolic Activation: NONE, Method: PREINCUBATION inactive; negative | [1] inactive; negative | Strain/Indicator: TA98, Metabolic Activation: RAT, LIVER, S-9, AROCLOR 1254 (10%), Method: PREINCUBATION inactive; negative | Strain/Indicator: TA98, Metabolic Activation: RAT, LIVER, S-9, AROCLOR 1254 (30%), Method: PREINCUBATION inactive; negative | Strain/Indicator: TA98, Metabolic Activation: RAT, LIVER, S-9, AROCLOR 1254, Method: STANDARD PLATE inactive; negative | Strain/Indicator: TA98, Metabolic Activation: RAT, LIVER, S-9, SODIUM PHENOBARBITAL, Method: STANDARD PLATE inactive; negative | Strain/Indicator: TA100, Metabolic Activation: HAMSTER, LIVER, S-9, AROCLOR 1254 (10%), Method: PREINCUBATION inactive; negative | Strain/Indicator: TA100, Metabolic Activation: HAMSTER, LIVER, S-9, AROCLOR 1254 (30%), Method: PREINCUBATION inactive; negative | Strain/Indicator: TA100, Metabolic Activation: NONE, Method: PREINCUBATION inactive; negative | [2] inactive; negative | Strain/Indicator: TA100, Metabolic Activation: RAT, LIVER, S-9, AROCLOR 1254 (10%), Method: PREINCUBATION inactive; negative | Strain/Indicator: TA100, Metabolic Activation: RAT, LIVER, S-9, AROCLOR 1254 (30%), Method: PREINCUBATION inactive; negative | Strain/Indicator: TA100, Metabolic Activation: RAT, LIVER, S-9, AROCLOR 1254, Method: STANDARD PLATE inactive; negative | Strain/Indicator: TA100, Metabolic Activation: RAT, LIVER, S-9, SODIUM PHENOBARBITAL, Method: STANDARD PLATE inactive; negative | Strain/Indicator: TA1535, Metabolic Activation: HAMSTER, LIVER, S-9, AROCLOR 1254 (10%), Method: PREINCUBATION inactive; negative | Strain/Indicator: TA1535, Metabolic Activation: HAMSTER, LIVER, S-9, AROCLOR 1254 (30%), Method: PREINCUBATION inactive; negative | Strain/Indicator: TA1535, Metabolic Activation: NONE, Method: PREINCUBATION inactive; negative | Strain/Indicator: TA1535, Metabolic Activation: NONE, Method: STANDARD PLATE inactive; negative | Strain/Indicator: TA1535, Metabolic Activation: RAT, LIVER, S-9, AROCLOR 1254 (10%), Method: PREINCUBATION inactive; negative | Strain/Indicator: TA1535, Metabolic Activation: RAT, LIVER, S-9, AROCLOR 1254 (30%), Method: PREINCUBATION inactive; negative | Strain/Indicator: TA1535, Metabolic Activation: RAT, LIVER, S-9, AROCLOR 1254, Method: STANDARD PLATE inactive; negative | Strain/Indicator: TA1535, Metabolic Activation: RAT, LIVER, S-9, SODIUM PHENOBARBITAL, Method: STANDARD PLATE inactive; negative | Strain/Indicator: TA1537, Metabolic Activation: HAMSTER, LIVER, S-9, AROCLOR 1254 (10%), Method: PREINCUBATION inactive; negative | Strain/Indicator: TA1537, Metabolic Activation: NONE, Method: PREINCUBATION inactive; negative | Strain/Indicator: TA1537, Metabolic Activation: NONE, Method: STANDARD PLATE inactive; negative | Strain/Indicator: TA1537, Metabolic Activation: RAT, LIVER, S-9, AROCLOR 1254 (10%), Method: PREINCUBATION inactive; negative | Strain/Indicator: TA1537, Metabolic Activation: RAT, LIVER, S-9, AROCLOR 1254, Method: STANDARD PLATE inactive; negative | Strain/Indicator: TA1537, Metabolic Activation: RAT, LIVER, S-9, SODIUM PHENOBARBITAL, Method: STANDARD PLATE inactive; negative | Strain/Indicator: TA1538, Metabolic Activation: NONE, Method: STANDARD PLATE inactive; negative | Strain/Indicator: TA1538, Metabolic Activation: RAT, LIVER, S-9, AROCLOR 1254, Method: STANDARD PLATE inactive; negative | Strain/Indicator: TA1538, Metabolic Activation: RAT, LIVER, S-9, SODIUM PHENOBARBITAL, Method: STANDARD PLATE inactive; negative

BrCc1ccc(CBr)cc1
inactive: [1] inactive; negative | [2] inactive; negative
